Data on eight compounds can be found in patent US12103924B2, “Mitogen-activated protein kinase kinase (MEK) degradation compounds and methods of use” (Icahn School of Medicine at Mount Sinai, priority 2020, dated 2024).

This test relates to HT-29 cells. Put plainly: MTT cell viability assay, HT-29. Format: cell-based. The following applies: Homo sapiens, 72 h, MTT assay, 3 d treatment, serial dilutions. For orientation: Formazan colour is commonly taken as a measure of viable cells.
Experimental: MTT assay was conducted for HT-29 cells after 3 d treatment with indicated compounds with serial dilutions.
MTT assay was conducted for HT-29 (A) and SK-MEL-28 (B) cells after 3 d treatment with DMSO or indicated compounds with serial dilutions. Clonogenic assay was performed in HT-29 (C) and SK-MEL-28 (D) cells for 14 d treatment with DMSO or indicated compounds with 10, 30 and 100 nM, in duplicate, respectively. Cells were then stained by crystal violet.
Cells (2000 cells per well) were seeded into 96-well microplates. After 20 h, cells were treated with 0.1% DMSO or indicated serial dilutions of compounds in duplicate or triplicate for 3 days. Cell viability was tested using MTT (M6494, Thermo Fisher Scientific) or WST-8 reagent (CK04, Dojindo). Briefly, 12 mM MTT was prepared in PBS or WST-8 reagent was warmed up to room temperature. 20 μL MTT or CCK-8 was then added to each well and the plates were kept in incubator at 37° C. for 3 h in the dark. For the WST-8 assay, signal was obtained after the incubation. For the MTT assay, cell medium was replaced with 200 μL of DMSO after the incubation, and then cell plates were kept at 37° C. for another 30 min. Absorbance signals for MTT and WST-8 were read at 540 nm and 450 nm respectively, with 690 nm as reference performed with Infinite F PLEX plate reader (TECAN, Morrisville, NC, USA). GI50 values were analyzed using GraphPad Prism 8 from the data of at least three independent experiments.
HT-29 or SK-MEL-28 cells (300 cells per well) were seeded in 12-well plates. After 20 h, cells were treated with DMSO or indicated concentrations of compounds in duplicate for two weeks. Medium containing indicated compounds was changed every 3 days. Cells were then fixed and stained with the solution containing 6% (v/v) glutaraldehyde (G5882, Sigma-Aldrich) and 0.5% (w/v) crystal violet for 1 h. To remove the background color, the plates with stained cells were immersed in running water until clear colonies were observed. The plates were dried at RT. The staining images were obtained with Epson Perfection V600 Photo.
A word on the GI50: it is the concentration that inhibits growth by half. Lower therefore signals greater sensitivity of the cells. `Cc1ncsc1-c1ccc(CNC(=O)[C@@H]2C[C@@H](O)CN2C(=O)[C@@H](NC(=O)CCCCCCCCNCCCONC(=O)c2ccc(F)c(F)c2Nc2ccc(I)cc2F)C(C)(C)C)cc1` [CPD-010, (2S,4R)-1-((S)-18-(tert-butyl)-1-(3,4-difluoro-2-((2-fluoro-4-iodophenyl)amino)phenyl)-1,16-dioxo-3-oxa-2,7,17-triazanonadecan-19-oyl)-4-hydroxy-N-(4-(4-methylthiazol-5-yl)benzyl)pyrrolidine-2-carboxamide] returned a GI50 of 0.6 ± 0.1 µM.

In turn, `O=C1CCC(N2C(=O)c3cccc(NCCCCCCCCNCCCONC(=O)c4ccc(F)c(F)c4Nc4ccc(I)cc4F)c3C2=O)C(=O)N1` (centres unmarked) [CPD-030, N-(3-((8-((2-(2,6-dioxopiperidin-3-yl)-1,3-dioxoisoindolin-4-yl)amino)octyl)amino)propoxy)-3,4-difluoro-2-((2-fluoro-4-iodophenyl)amino)benzamide] had a GI50 of 3.5 ± 0.9 µM.

Compound `Cc1ncsc1-c1ccc(CNC(=O)[C@@H]2C[C@@H](O)CN2C(=O)[C@@H](NC(=O)CCOCCOCCOCCNCCCONC(=O)c2ccc(F)c(F)c2Nc2ccc(I)cc2F)C(C)(C)C)cc1` [CPD-016, (2S,4R)-1-((S)-21-(tert-butyl)-1-(3,4-difluoro-2-((2-fluoro-4-iodophenyl)amino)phenyl)-1,19-dioxo-3,10,13,16-tetraoxa-2,7,20-triazadocosan-22-oyl)-4-hydroxy-N-(4-(4-methylthiazol-5-yl)benzyl)pyrrolidine-2-carboxamide] came in with a GI50 of 3.3 ± 0.6 µM.

`O=C1CCC(N2C(=O)c3ccc(NCCOCCOCCOCCNCCCONC(=O)c4ccc(F)c(F)c4Nc4ccc(I)cc4F)cc3C2=O)C(=O)N1` (centres unmarked) [CPD-049, N-((1-((2-(2,6-dioxopiperidin-3-yl)-1,3-dioxoisoindolin-5-yl)amino)-3,6,9-trioxa-12-azapentadecan-15-yl)oxy)-3,4-difluoro-2-((2-fluoro-4-iodophenyl)amino)benzamide] returned a GI50 of 1.5 ± 0.5 µM.

As for `O=C1CCC(N2C(=O)c3cccc(NCCCCNCCCONC(=O)c4ccc(F)c(F)c4Nc4ccc(I)cc4F)c3C2=O)C(=O)N1` (centres unmarked) [CPD-026, N-(3-((4-((2-(2,6-dioxopiperidin-3-yl)-1,3-dioxoisoindolin-4-yl)amino)butyl)amino)propoxy)-3,4-difluoro-2-((2-fluoro-4-iodophenyl)amino)benzamide], the GI50 was found to be 1.9 ± 0.4 µM.

The compound `Cc1ncsc1-c1ccc([C@H](C)NC(=O)[C@@H]2C[C@@H](O)CN2C(=O)[C@@H](NC(=O)CCCCCCCCCCNCCCCONC(=O)c2ccc(F)c(F)c2Nc2ccc(I)cc2F)C(C)(C)C)cc1` [CPD-039, (2S,4R)-1-((S)-21-(tert-butyl)-1-(3,4-difluoro-2-((2-fluoro-4-iodophenyl)amino)phenyl)-1,19-dioxo-3-oxa-2,8,20-triazadocosan-22-oyl)-4-hydroxy-N—((S)-1-(4-(4-methylthiazol-5-yl)phenyl)ethyl)pyrrolidine-2-carboxamide] came in with a GI50 of 0.043 ± 0.001 µM.

`O=C1CCC(N2C(=O)c3ccc(NCCCCCCNCCCONC(=O)c4ccc(F)c(F)c4Nc4ccc(I)cc4F)cc3C2=O)C(=O)N1` (centres unmarked) [CPD-044, N-(3-((6-((2-(2,6-dioxopiperidin-3-yl)-1,3-dioxoisoindolin-5-yl)amino)hexyl)amino)propoxy)-3,4-difluoro-2-((2-fluoro-4-iodophenyl)amino)benzamide] displayed a GI50 of 1.1 ± 0.5 µM.

The compound `O=C1CCC(N2C(=O)c3ccc(NCCCCNCCCONC(=O)c4ccc(F)c(F)c4Nc4ccc(I)cc4F)cc3C2=O)C(=O)N1` (centres unmarked) [CPD-042, N-(3-((4-((2-(2,6-dioxopiperidin-3-yl)-1,3-dioxoisoindolin-5-yl)amino)butyl)amino)propoxy)-3,4-difluoro-2-((2-fluoro-4-iodophenyl)amino)benzamide] registered a GI50 of 1 ± 0.4 µM.
